Measurements from ChEMBL document CHEMBL5705899 (Biochem J, 2014).
Active and inactive are the calls of the source. The calls are words filed in the database; no cut-off is given here.

Tests used:
[1] = biological target: Mitogen-activated protein kinase 3 (Homo sapiens) (UniProt P27361); assay: Inhibition of recombinant human N-terminal GST-tagged ERK1 (2 to 379 residues) expressed in Escherichia coli assessed as remaining activity at 1 uM using MBP as substrate incubated for 30 mins in presence of [gamma-33P]ATP by filter binding method relative to control
[2] = biological target: Serine/threonine-protein kinase PAK 4 (Homo sapiens) (UniProt O96013); assay: Inhibition of recombinant human N-terminal GST-tagged PAK4 (2 to 519 residues) expressed in Escherichia coli assessed as remaining activity at 1 uM using RRRLSFAEPG as substrate incubated for 30 mins in presence of [gamma-33P]ATP by filter binding method relative to control
[3] = biological target: Ephrin type-B receptor 2 (Homo sapiens) (UniProt P29323); assay: Inhibition of recombinant human N-terminal His6-tagged EPHB2 (560 to 987 residues) expressed in baculovirus infected Sf21 cells assessed as remaining activity at 1 uM using Poly (Glu,Tyr) as substrate incubated for 30 mins in presence of [gamma-33P]ATP by filter binding method relative to control
[4] = biological target: Phosphorylase b kinase gamma catalytic chain, skeletal muscle/heart isoform (Homo sapiens) (UniProt Q16816); assay: Inhibition of recombinant human N-terminal GST-tagged PHKgamma1 (2 to 297 residues) expressed in Escherichia coli assessed as remaining activity at 1 uM using phosphorylase b peptide as substrate incubated for 30 mins in presence of [gamma-33P]ATP by filter binding method relative to control
[5] = biological target: Mitogen-activated protein kinase 11 (Homo sapiens) (UniProt Q15759); assay: Inhibition of recombinant human N-terminal GST-tagged P38beta (1 to 364 residues) expressed in Escherichia coli assessed as remaining activity at 1 uM using MBP as substrate incubated for 30 mins in presence of [gamma-33P]ATP by filter binding method relative to control
[6] = biological target: 5'-AMP-activated protein kinase catalytic subunit alpha-1 (Homo sapiens) (UniProt Q13131); assay: Inhibition of human AMPKalpha1 (1 to 550 residues) at 1 uM using RBER-CHKtide as substrate in presence of 33P-ATP by ProQinase assay
[7] = biological target: Tau-tubulin kinase 1 (Homo sapiens) (UniProt Q5TCY1); assay: Inhibition of recombinant human N-terminal GST-tagged TTBK1 (1 to 1321 residues) expressed in Escherichia coli assessed as remaining activity at 1 uM using RRKDLHDDEEDEAMSITA as substrate incubated for 30 mins in presence of [gamma-33P]ATP by filter binding method relative to control
[8] = biological target: Tyrosine-protein kinase SYK (Homo sapiens) (UniProt P43405); assay: Inhibition of recombinant human N-terminal His6-tagged SYK (1 to 635 residues) expressed in baculovirus infected Sf21 cells assessed as remaining activity at 1 uM using Poly (Glu,Tyr) as substrate incubated for 30 mins in presence of [gamma-33P]ATP by filter binding method relative to control
[9] = biological target: Fibroblast growth factor receptor 1 (Homo sapiens) (UniProt P11362); assay: Inhibition of recombinant human N-terminal His6-tagged FGFR1 (400 to 820 residues) expressed in baculovirus infected Sf21 cells assessed as remaining activity at 1 uM using Poly(Glu,Tyr) as substrate incubated for 30 mins in presence of [gamma-33P]ATP by filter binding method relative to control
[10] = biological target: Mitogen-activated protein kinase kinase kinase 5 (Homo sapiens) (UniProt Q99683); assay: Inhibition of human ASK1 at 1 uM using RBER-GSK3 as substrate in presence of 33P-ATP by ProQinase assay
[11] = biological target: SRSF protein kinase 1 (Homo sapiens) (UniProt Q96SB4); assay: Inhibition of human SRPK1 at 1 uM using MBP as substrate in presence of 33P-ATP by ProQinase assay
[12] = biological target: Tyrosine-protein kinase Srms (Homo sapiens) (UniProt Q9H3Y6); assay: Inhibition of human SRMS at 1 uM using PolyEY as substrate in presence of 33P-ATP by ProQinase assay
[13] = biological target: Dual specificity protein kinase CLK2 (Homo sapiens) (UniProt P49760); assay: Inhibition of human CLK2 at 1 uM using RBER-GSK3 as substrate in presence of 33P-ATP by ProQinase assay
[14] = biological target: Proto-oncogene tyrosine-protein kinase receptor Ret (Homo sapiens) (UniProt P07949); assay: Inhibition of human RET at 1 uM using polyEY as substrate in presence of 33P-ATP by ProQinase assay
[15] = biological target: Homeodomain-interacting protein kinase 2 (Homo sapiens) (UniProt Q9H2X6); assay: Inhibition of human HIPK2 at 1 uM using RBER-CHKtide as substrate in presence of 33P-ATP by ProQinase assay
[16] = biological target: Calcium/calmodulin-dependent protein kinase type 1D (Homo sapiens) (UniProt Q8IU85); assay: Inhibition of human CAMK1D at 1 uM using RBER-CHKtide as substrate in presence of 33P-ATP by ProQinase assay
[17] = biological target: Serine/threonine-protein kinase NLK (Homo sapiens) (UniProt Q9UBE8); assay: Inhibition of human NLK at 1 uM using RBER-GSK3 as substrate in presence of 33P-ATP by ProQinase assay

Fibroblast growth factor receptor 1 (Homo sapiens), sequence (P11362 22-822 limits assumed): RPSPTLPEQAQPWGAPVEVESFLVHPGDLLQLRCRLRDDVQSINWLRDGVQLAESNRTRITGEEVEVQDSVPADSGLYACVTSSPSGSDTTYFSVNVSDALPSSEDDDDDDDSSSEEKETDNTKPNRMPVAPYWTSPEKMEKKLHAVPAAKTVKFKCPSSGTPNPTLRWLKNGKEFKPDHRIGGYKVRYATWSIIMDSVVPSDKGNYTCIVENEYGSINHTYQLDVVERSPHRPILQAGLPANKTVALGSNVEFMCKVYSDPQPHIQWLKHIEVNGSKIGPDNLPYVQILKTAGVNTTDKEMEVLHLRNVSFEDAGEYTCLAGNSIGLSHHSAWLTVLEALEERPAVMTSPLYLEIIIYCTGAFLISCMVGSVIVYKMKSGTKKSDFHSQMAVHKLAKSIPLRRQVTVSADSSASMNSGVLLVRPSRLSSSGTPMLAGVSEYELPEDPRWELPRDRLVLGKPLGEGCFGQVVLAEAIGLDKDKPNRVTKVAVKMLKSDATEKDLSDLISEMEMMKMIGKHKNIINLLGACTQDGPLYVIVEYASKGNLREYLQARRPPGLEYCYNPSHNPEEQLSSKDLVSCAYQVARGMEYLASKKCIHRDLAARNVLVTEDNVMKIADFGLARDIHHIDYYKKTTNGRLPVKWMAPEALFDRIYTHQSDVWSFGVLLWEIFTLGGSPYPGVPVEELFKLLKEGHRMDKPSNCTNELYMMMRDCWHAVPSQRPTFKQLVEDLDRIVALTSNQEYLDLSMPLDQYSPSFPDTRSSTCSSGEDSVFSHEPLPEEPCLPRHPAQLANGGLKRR
Homeodomain-interacting protein kinase 2 (Homo sapiens), sequence (Q9H2X6 whole entry, looked up): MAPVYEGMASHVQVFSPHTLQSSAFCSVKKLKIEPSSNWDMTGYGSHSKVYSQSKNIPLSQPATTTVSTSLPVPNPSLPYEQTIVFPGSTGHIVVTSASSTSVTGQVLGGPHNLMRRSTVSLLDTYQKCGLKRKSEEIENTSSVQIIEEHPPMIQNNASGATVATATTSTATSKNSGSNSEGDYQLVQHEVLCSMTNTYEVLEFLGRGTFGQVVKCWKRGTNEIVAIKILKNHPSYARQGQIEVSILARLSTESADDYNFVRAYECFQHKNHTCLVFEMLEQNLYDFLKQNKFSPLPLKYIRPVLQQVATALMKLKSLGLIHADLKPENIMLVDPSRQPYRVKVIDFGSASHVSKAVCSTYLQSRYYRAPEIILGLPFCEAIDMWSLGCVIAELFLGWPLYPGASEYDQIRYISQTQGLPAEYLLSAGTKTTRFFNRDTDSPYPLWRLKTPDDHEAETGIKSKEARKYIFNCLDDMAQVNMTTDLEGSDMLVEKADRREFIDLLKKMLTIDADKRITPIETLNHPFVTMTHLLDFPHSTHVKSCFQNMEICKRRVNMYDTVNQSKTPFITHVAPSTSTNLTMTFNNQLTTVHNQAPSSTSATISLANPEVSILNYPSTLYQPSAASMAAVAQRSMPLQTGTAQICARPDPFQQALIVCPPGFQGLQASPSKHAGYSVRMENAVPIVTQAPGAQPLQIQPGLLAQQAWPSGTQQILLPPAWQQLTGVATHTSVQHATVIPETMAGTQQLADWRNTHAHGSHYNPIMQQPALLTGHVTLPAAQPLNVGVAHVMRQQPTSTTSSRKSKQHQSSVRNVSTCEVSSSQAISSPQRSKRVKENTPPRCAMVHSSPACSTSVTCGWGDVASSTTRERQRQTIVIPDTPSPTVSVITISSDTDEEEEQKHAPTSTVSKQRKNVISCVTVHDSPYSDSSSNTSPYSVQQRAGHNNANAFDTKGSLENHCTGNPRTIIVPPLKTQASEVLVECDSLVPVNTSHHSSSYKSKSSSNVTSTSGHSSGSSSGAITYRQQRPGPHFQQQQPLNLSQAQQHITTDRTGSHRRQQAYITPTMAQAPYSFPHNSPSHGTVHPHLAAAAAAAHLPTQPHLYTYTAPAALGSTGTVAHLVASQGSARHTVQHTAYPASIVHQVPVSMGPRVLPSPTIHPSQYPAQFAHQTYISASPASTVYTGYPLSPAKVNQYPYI
5'-AMP-activated protein kinase catalytic subunit alpha-1 (Homo sapiens), sequence (Q13131 whole entry, looked up, the tested form may be a part): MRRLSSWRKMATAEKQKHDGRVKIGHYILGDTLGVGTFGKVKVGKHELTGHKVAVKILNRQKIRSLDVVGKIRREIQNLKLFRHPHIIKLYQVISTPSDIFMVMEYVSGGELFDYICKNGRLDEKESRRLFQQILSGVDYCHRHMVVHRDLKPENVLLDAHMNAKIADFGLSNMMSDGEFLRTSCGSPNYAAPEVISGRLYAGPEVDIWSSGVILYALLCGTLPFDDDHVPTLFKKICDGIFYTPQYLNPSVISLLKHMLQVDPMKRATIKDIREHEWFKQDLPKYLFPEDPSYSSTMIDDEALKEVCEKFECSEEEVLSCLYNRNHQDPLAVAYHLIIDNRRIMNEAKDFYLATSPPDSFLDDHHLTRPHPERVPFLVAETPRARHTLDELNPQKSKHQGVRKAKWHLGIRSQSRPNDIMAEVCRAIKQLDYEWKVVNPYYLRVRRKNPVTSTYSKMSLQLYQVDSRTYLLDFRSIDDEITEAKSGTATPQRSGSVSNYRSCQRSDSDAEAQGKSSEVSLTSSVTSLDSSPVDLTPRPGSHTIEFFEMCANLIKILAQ
Dual specificity protein kinase CLK2 (Homo sapiens), sequence (P49760 whole entry, looked up): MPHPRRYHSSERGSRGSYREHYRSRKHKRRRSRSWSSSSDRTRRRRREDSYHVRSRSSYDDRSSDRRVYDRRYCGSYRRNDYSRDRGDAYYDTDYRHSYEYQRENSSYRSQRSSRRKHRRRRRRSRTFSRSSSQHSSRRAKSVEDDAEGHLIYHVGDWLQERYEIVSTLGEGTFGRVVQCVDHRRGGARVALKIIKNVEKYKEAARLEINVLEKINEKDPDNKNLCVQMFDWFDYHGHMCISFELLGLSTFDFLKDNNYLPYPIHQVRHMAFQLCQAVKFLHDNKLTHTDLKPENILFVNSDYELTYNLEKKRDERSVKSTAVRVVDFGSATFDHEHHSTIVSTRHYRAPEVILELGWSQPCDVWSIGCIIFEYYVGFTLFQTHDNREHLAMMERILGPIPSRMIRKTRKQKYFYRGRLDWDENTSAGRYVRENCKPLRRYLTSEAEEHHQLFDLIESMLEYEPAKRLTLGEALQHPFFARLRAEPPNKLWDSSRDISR
Tau-tubulin kinase 1 (Homo sapiens), sequence (Q5TCY1 whole entry, the tested form may be a part): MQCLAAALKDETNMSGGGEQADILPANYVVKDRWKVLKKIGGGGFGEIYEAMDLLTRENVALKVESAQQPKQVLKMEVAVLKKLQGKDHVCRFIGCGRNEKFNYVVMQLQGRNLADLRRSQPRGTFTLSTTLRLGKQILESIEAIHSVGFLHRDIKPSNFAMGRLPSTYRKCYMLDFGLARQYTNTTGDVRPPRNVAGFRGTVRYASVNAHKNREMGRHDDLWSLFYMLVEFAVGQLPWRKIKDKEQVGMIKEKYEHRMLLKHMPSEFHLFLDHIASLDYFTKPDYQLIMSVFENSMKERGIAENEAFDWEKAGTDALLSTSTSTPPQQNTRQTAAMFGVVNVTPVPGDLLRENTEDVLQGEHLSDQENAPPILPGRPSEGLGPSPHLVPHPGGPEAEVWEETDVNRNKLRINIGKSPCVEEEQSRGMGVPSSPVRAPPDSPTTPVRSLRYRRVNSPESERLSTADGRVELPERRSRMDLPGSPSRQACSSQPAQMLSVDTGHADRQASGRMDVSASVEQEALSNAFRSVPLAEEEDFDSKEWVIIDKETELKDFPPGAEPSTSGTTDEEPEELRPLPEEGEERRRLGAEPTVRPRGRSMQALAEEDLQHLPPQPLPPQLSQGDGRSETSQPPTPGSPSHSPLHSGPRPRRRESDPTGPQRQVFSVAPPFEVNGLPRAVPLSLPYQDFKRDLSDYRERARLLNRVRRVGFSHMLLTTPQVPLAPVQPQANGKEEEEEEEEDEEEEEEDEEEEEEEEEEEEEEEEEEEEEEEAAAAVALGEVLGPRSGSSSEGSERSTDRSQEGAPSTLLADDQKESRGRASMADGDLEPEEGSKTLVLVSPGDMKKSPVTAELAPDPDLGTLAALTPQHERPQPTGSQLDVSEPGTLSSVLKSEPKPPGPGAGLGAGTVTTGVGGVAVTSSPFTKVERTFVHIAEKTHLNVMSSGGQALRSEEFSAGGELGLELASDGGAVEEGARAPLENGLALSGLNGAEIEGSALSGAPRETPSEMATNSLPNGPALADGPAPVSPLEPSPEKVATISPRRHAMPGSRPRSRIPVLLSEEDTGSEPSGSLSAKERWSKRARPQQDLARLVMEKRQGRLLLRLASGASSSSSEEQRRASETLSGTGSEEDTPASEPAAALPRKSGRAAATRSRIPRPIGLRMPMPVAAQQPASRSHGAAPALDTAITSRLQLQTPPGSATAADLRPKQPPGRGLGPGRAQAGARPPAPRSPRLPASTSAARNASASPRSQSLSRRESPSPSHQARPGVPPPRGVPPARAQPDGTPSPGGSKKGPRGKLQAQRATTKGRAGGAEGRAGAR
Mitogen-activated protein kinase 3 (Homo sapiens), sequence (P27361 whole entry, the tested form may be a part): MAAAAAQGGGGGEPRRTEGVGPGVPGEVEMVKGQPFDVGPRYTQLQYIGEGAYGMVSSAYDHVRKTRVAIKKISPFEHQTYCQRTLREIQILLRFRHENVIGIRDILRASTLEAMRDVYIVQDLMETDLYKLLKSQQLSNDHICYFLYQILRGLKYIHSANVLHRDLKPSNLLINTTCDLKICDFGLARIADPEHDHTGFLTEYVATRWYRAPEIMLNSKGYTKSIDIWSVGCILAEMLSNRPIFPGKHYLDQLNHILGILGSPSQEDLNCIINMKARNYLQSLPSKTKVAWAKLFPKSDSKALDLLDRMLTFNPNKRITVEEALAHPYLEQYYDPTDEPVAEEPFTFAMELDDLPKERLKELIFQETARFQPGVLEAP

CC(C)(O)CNc1ncc(-c2ccnc(Nc3ccnc(Cl)c3)n2)c(CC2CC2)n1
Activity [1]: 108%
Activity [2]: 103%
Activity [3]: 109%
Activity [4]: 105%
Activity [5]: 115%
inhibition [6]: inactive
Activity [7]: 106%
Activity [8]: 91%
Activity [9]: 95%
inhibition [10]: inactive
inhibition [11]: inactive
inhibition [12]: inactive
inhibition [13]: inactive
inhibition [14]: inactive
inhibition [15]: inactive
inhibition [16]: inactive
inhibition [17]: inactive
